Measured values published in article PMC11500415, “Chemical inhibition of stomatal differentiation by perturbation of the master-regulatory bHLH heterodimer via an ACT-Like domain” (Nature Communications, 2024).
Values joined by “and” are separate entries in the source; they are usually repeats but may differ in a detail not shown here. Identical values can stand only once.

Columns and labels:
[1] = Stability with acid or base in organic solvent; format: physicochemical; conditions: 1,2-dichloroethane, 40 °C, 3 h
Source text: To examine the stability of Stomidazolone and identify any degraded products (if unstable), we treated Stomidazolone with an acid or a base. […] The major degraded product under basic conditions was isolated with gel-permeation chromatography (GPC) in 48% yield. The product, which we designated as lzx103 (compound 4), was identified as (phenylsulfonyl)benzimidamide[39] through ^1H and ^13C NMR analyses (Supplementary Fig. 3a, Supplementary Data 1). […]
show any biological activity on stomatal development (see Revised Fig. S3), thus ruling out the possibility that the inhibition of stomatal differentiation is attributable to the degradation product rather than Stomidzaolone itself. The yield of Izx103 was determined through isolation. Please see the schematics below (presented as Fig. S3). These new findings are described in detail in our Revised Results section (see Page 6 "Stability of […]
with CH COOH (3.1 equiv.) HN […]
with NaOH (3.1 equiv.) NH2 […]
The authors should also provide a better 13C NMR spectrum of the compound in the SI, the current copy features rather weak signal intensities and some signals can only be suspected.
We re-synthesized Stomidazolone and substituted with a better 13C NMR spectrum of Stomidazolone in our revised Document S1. Thank you.
Finally, it should be mentioned in the MS right from the beginning that the compound is a racemic mixture (see also point 2 for this).
We sincerely appreciate Reviewer 2 for raising an important point. Please see our […]
observed effects are caused by Stomidazolone-mediated modulation of MUTE function. The authors use SIM1 during the plant assays which is however not an optimal control as it is not […]
in the biochemical assays, while active compounds are in contrast active in both assay types.
An almost optimal control for these phenotypic and biochemical assays in my view are the two enantiomers of Stomidazolone. […]

[2] = molecular target: T1, DB+SCRM (control yeast) (Arabidopsis thaliana, UniProt Q9LSE2); test: Y2H quantitative α-galactosidase assay, control pair DB+SCRM; format: cell-based; conditions: individual replicates, listed as AYSJ929
T1 construct: expressed in transfected cells; host or cells: yeast strain AH109
T1 sequence (Q9LSE2 1-494): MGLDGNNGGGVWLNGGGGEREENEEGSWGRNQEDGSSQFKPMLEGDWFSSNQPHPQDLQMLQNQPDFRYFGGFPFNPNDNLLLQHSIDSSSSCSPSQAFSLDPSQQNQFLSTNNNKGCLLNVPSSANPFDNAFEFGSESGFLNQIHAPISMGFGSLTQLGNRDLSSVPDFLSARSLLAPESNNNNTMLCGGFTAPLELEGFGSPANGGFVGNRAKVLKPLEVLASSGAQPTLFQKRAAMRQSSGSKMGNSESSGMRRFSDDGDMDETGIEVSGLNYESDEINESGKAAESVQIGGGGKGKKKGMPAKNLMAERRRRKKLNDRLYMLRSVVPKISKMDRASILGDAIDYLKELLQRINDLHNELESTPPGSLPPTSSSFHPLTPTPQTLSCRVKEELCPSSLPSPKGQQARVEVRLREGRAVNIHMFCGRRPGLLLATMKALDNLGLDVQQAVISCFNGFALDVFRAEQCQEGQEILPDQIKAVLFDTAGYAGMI
Source text: Supplement 41467_2024_53214_MOESM7_ESM.xlsx, sheet "Fig.6b" | column: a-galactosidase [milliunits /(ml x cell)]

[3] = molecular target: T2, SCRM2-SPCH heterodimer (Arabidopsis thaliana, UniProt Q700C7); test: Ratiometric BiFC in N. benthamiana leaves; format: cell-based; conditions: 100 µM
T2 construct: heterodimerization of SCRM with full-length SPCH, MUTE, or FAMA in the context of the plant cells; we performed rBiFC assays using full-length SCRM2; nYFP (N terminus of EYFP, 174 amino acids); cYFP (C terminus of EYFP, 64 amino acids); expressed in transfected cells; host or cells: Nicotiana benthamiana leaves (Agrobacterium infiltration)
Source text: (§1) For ratiometric BiFC assays, the cDNAs of SPCH, MUTE, and FAMA were cloned into the 35S CaMV promoter-driven destination vector pSPYNE, which contains the N terminus of the EYFP protein (nYFP-174 amino acids), while the cDNA of SCRM and SCRM2 was inserted into pSPYCE, which contains the C terminus of the EYFP protein (cYFP-64 amino acids) (see Supplementary Table 5 for detailed information of the constructs). The constructs were then transformed into Agrobacterium tumefaciens strain GV3101. The Agrobacterium was resuspended in infiltration buffer (10 mM MgCl2, 10 mM 2-(N-morpholino)ethanesulfonic acid [pH 5.6], and 150 µM acetosyringone). Bacterial culture densities were adjusted to a final optical density (OD600) of 1.0, and the cell suspensions were incubated at room temperature for 4 hours prior to infiltration. Equal volumes of cultures carrying the corresponding complementary pair of BiFC constructs (YFPn and YFPc), along with CaMV35S::Histone H2B-mScarlet-I3 and the silencing suppressor plasmid p19 (a gift from Dr. Sir David Baulcombe) were mixed and then co-infiltrated into 4-week-old N. benthamiana leaves. The infiltrated N. benthamiana leaves were incubated at 25 °C for 2 days. Subsequently, leaf discs were cut out and cultured in mock or in liquid 1/2 MS media in mock (DMSO) or 100 µM Stomidazolone for 1 day. Confocal imaging of N. benthamiana leaves was performed using a Leica SP8 confocal microscope using a 20X objective lens (Leica Microsystems), simultaneously capturing YFP (excitation at 518 nm and emission at 530 nm) and mScarlet-I3 (excitation at 569 nm and emission at 600 nm) differential interference contrast channels.

[4] = molecular target: T3, SCRM2-FAMA heterodimer (Arabidopsis thaliana, UniProt Q56YJ8); test: Ratiometric BiFC in N. benthamiana leaves; format: cell-based; conditions: 100 µM
T3 construct: heterodimerization of SCRM with full-length SPCH, MUTE, or FAMA in the context of the plant cells; we performed rBiFC assays using full-length SCRM2; nYFP (N terminus of EYFP, 174 amino acids); cYFP (C terminus of EYFP, 64 amino acids); expressed in transfected cells; host or cells: Nicotiana benthamiana leaves (Agrobacterium infiltration)
Source text: as §1

[5] = molecular target: T4, SCRM2-MUTE heterodimer (Arabidopsis thaliana, UniProt Q9M8K6); test: Ratiometric BiFC in N. benthamiana leaves; format: cell-based; conditions: 100 µM
T4 construct: heterodimerization of SCRM with full-length SPCH, MUTE, or FAMA in the context of the plant cells; nYFP (N terminus of EYFP, 174 amino acids); expressed in transfected cells; host or cells: Nicotiana benthamiana leaves (Agrobacterium infiltration)
Source text: as §1

T3 sequence (Q56YJ8 whole entry, one chain of several): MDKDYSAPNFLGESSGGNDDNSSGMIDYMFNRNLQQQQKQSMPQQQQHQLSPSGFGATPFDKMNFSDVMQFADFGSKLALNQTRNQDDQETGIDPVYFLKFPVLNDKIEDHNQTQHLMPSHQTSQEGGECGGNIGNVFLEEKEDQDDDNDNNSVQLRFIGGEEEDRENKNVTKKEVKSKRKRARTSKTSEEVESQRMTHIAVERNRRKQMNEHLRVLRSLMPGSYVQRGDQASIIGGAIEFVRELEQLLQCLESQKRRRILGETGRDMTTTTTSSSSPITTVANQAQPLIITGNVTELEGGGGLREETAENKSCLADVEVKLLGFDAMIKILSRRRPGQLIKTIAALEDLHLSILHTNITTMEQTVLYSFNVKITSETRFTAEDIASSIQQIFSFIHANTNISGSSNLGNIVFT
T4 sequence (Q9M8K6 whole entry, one chain of several): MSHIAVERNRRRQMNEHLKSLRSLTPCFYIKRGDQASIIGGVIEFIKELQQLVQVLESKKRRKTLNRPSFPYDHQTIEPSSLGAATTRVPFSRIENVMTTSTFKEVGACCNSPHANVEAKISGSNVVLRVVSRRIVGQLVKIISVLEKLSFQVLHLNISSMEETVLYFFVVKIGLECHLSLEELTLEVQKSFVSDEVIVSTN
T2 sequence (Q700C7 whole entry, one chain of several): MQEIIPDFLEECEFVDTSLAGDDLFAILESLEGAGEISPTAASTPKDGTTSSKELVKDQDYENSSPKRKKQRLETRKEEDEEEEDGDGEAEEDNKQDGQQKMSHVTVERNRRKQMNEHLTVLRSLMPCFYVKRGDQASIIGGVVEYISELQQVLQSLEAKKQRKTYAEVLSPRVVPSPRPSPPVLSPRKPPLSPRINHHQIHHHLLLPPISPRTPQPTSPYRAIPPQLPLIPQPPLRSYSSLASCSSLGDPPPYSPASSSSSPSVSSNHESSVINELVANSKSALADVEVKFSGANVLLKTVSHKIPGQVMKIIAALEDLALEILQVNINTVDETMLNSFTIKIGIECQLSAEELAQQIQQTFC

## O=C1C(c2ccccc2)=NC(NS(=O)(=O)c2ccccc2)(c2ccccc2)N1S(=O)(=O)c1ccccc1 (stereo not drawn) [Stomidazolone]
[1]; 3 equiv. of acetic acid
  stability under acidic conditions: stable
[1]; 3 equiv. of sodium hydroxide
  stability under basic conditions: completely degraded
[1]; CH3COOH (3.1 equiv.)
  recovered by 1H NMR analysis: 93%
[2]; 10 µM
  a-galactosidase: 0.72 milliunits /(ml x cell) and 0.19 milliunits /(ml x cell) and 0.32 milliunits /(ml x cell)
[2]; 50 µM
  a-galactosidase: 0.16 milliunits /(ml x cell) and 0.47 milliunits /(ml x cell) and 0.51 milliunits /(ml x cell)
[2]; 100 µM
  a-galactosidase: 0.46 milliunits /(ml x cell) and 0.80 milliunits /(ml x cell) and 0.52 milliunits /(ml x cell)
[3]
  effect on heterodimerization (in words): abolished
[4]
  effect on heterodimerization (in words): abolished
[5]
  effect on heterodimerization (in words): abolished
